Type in all cases: functional
Test [1] deals with HT-29. Nature of the test: Induction of cell cycle arrest in human HT-29 cells assessed as accumulation at S phase at 300 uM after 24 hrs by flow cytometry (reference value: 21+/-0.9%).
The test system of test [2] is HT-29. As to the kind of experiment: Induction of cell cycle arrest in human HT-29 cells assessed as accumulation at G0/G1 phase at 150 uM after 24 hrs by flow cytometry (reference value: 61.4+/-1.1%).
For test [3], the system named is HT-29. As to the kind of experiment: Growth inhibition of human HT-29 cells at 100 uM after 24 hrs by BrdU-ELISA assay. The conditions noted are these: HT-29, 24 h, read-out: GI.
Test [4] has as its system HT-29. As to the kind of experiment: Growth inhibition of human HT-29 cells at 150 uM after 24 hrs by BrdU-ELISA assay. The conditions noted are these: HT-29, 24 h, read-out: GI.
Test [5] has as its system HT-29. As to the kind of experiment: Growth inhibition of human HT-29 cells at 300 uM after 48 hrs by BrdU-ELISA assay. The conditions noted are these: HT-29, 48 h, read-out: GI.
Test [6] relates to HT-29. As to the kind of experiment: Growth inhibition of human HT-29 cells at 300 uM after 24 hrs by BrdU-ELISA assay. The conditions noted are these: HT-29, 24 h, read-out: GI.
Test [7] deals with HT-29. Nature of the test: Growth inhibition of human HT-29 cells at 150 uM after 48 hrs by BrdU-ELISA assay. As to conditions: HT-29, 48 h, read-out: GI.
In test [8] the test system is HT-29. As to the kind of experiment: Induction of cell cycle arrest in human HT-29 cells assessed as accumulation at G2/M phase at 100 uM after 24 hrs by flow cytometry (reference value: 17.6+/-1%).
The subject of test [9] is HT-29. Nature of the test: Induction of cell cycle arrest in human HT-29 cells assessed as accumulation at S phase at 100 uM after 24 hrs by flow cytometry (reference value: 21+/-0.9%).
Test [10] concerns HT-29. As to the kind of experiment: Induction of cell cycle arrest in human HT-29 cells assessed as accumulation at G2/M phase at 150 uM after 24 hrs by flow cytometry (reference value: 17.6+/-1%).
The subject of test [11] is HT-29. Nature of the test: Growth inhibition of human HT-29 cells at 100 uM after 48 hrs by BrdU-ELISA assay. As to conditions: HT-29, 48 h, read-out: GI.
For test [12], the system named is HT-29. Nature of the test: Induction of cell cycle arrest in human HT-29 cells assessed as accumulation at S phase at 150 uM after 24 hrs by flow cytometry (reference value: 21+/-0.9%).
The test system of test [13] is HT-29. As to the kind of experiment: Induction of cell cycle arrest in human HT-29 cells assessed as accumulation at G2/M phase at 300 uM after 24 hrs by flow cytometry (reference value: 17.6+/-1%).
In test [14] the test system is HT-29. Nature of the test: Induction of cell cycle arrest in human HT-29 cells assessed as accumulation at G0/G1 phase at 100 uM after 24 hrs by flow cytometry (reference value: 61.4+/-1.1%).
In test [15] the test system is HT-29. As to the kind of experiment: Induction of cell cycle arrest in human HT-29 cells assessed as accumulation at G0/G1 phase at 300 uM after 24 hrs by flow cytometry (reference value: 61.4+/-1.1%).

Regarding `O=C(CCCCC1CCSS1)OCCc1ccc(O)c(O)c1` (stereo not given), the Activity with HT-29 [1] is 14%; in the test with HT-29 [2] it was 29.3%; with HT-29 [8], 49.7%; in the test with HT-29 [9], 17.7%; in the test with HT-29 [10], 50.5%; in the test on HT-29 [12], 18.1%. Moreover, the Activity worked out at 56.8% in the test on HT-29 [13], 31.3% in the test with HT-29 [14] and 28.2% in the test on HT-29 [15]. Moreover, the inhibition of growth at 100 µM is 33.9% with HT-29 [3] and 45.6% with HT-29 [11]. Moreover, the inhibition of growth at 150 µM was 69.6% with HT-29 [4] and 70.6% with HT-29 [7]. Further, the inhibition of growth at 300 µM in the test on HT-29 [5] is 83.6%; in the test with HT-29 [6], 83.9%.

Take `OCCc1ccc(O)c(O)c1` [HYDROXYTYROSOL]: the Activity in the test on HT-29 [1] came to 20.1%; in the test on HT-29 [2], 40.3%; in the test with HT-29 [8], 35%; with HT-29 [9] it was 22.5%; in the test on HT-29 [10], 36.7%; with HT-29 [12], 20.3%. Further, the Activity in the test with HT-29 [13] stood at 43.5%; with HT-29 [14], 40.5%; in the test on HT-29 [15], 34.4%. In addition, the inhibition of growth at 100 µM is 20.7% with HT-29 [3] and 17.3% with HT-29 [11]. Also, the inhibition of growth at 150 µM amounted to 37.5% in the test with HT-29 [4] and 29.3% with HT-29 [7]. The inhibition of growth at 300 µM with HT-29 [5] is 53.2%; in the test on HT-29 [6], 64.2%.

As for `O=C(O)CCCCC1CCSS1` (stereo not drawn) [LIPOIC ACID, ALPHA], the Activity was 19.3% in the test with HT-29 [1]; 45.6% in the test with HT-29 [2]; 36.9% with HT-29 [8]; 19.2% with HT-29 [9]; 32.1% in the test with HT-29 [10]; 20.1% in the test with HT-29 [12]. The Activity in the test on HT-29 [13] worked out at 40.3%; in the test on HT-29 [14], 43.5%; in the test on HT-29 [15], 37.5%. For the same molecule, the inhibition of growth at 100 µM in the test with HT-29 [3] was 17.8%; in the test on HT-29 [11], 6.5%. The inhibition of growth at 150 µM came to 25.5% in the test with HT-29 [4] and 18.4% with HT-29 [7]. Moreover, the inhibition of growth at 300 µM came to 19.5% in the test with HT-29 [5] and 24% in the test on HT-29 [6].

The values above are taken from ChEMBL document CHEMBL1649379, “Synthesis of a novel ester of hydroxytyrosol and α-lipoic acid exhibiting an antiproliferative effect on human colon cancer HT-29 cells” (2011).
